# Results taken from article PMC6018746, “Activation of the p53-MDM4 regulatory axis defines the anti-tumour response to PRMT5 inhibition through its role in regulating cellular splicing” (Scientific Reports, 2018).
# Like-named read-outs stand apart in the source and are kept apart here.
# Tested on: panel of hematologic and solid cancer lines
# Experiment: 6-day in vitro growth/death assay
# Type: cell-based, human
# Details: read-out: gIC50
# Description: To further develop these molecules and to guide clinical strategy, it was necessary to understand sensitivity in preclinical models by assessing the anti-tumour activity of the PRMT5 inhibitors in various cancers.
# Cell lines were obtained from ATCC or DSMZ and were grown in recommended medium, which was most frequently RPMI-1640 containing 10% FBS. Cell line proliferation assays, Western blotting, qRT-PCR, and cell cycle analyses were performed as described previously[27],[28]. Antibody and gene expression reagents are as described in Supplementary Table 16. All studies were conducted in accordance with the GSK Policy on the Care, Welfare and Treatment of Laboratory Animals and were reviewed by the Institutional Animal Care and Use Committee either at GSK or by the ethical review process at the institution where the work was performed. Detailed descriptions of all methods can be found in the Supplemental Materials.
smiles,measurement,setting,value
O=C(NC[C@H](O)CN1CCc2ccccc2C1)c1ccnc(NC2CCC2)c1 [GSK3203591],IC50,5637,143 nM
same,IC50,A172,590 nM
same,IC50,BJAB,3100 nM
same,IC50,DOHH-2,116 nM
same,IC50,HCC70,522 nM
same,IC50,HCC1143,509 nM
same,IC50,HCC1806,261 nM
same,IC50,"Homo sapiens, 1A2, 1A2",333 nM
same,IC50,"Homo sapiens, 22Rv1, 22Rv1",23500 nM
same,IC50,"Homo sapiens, 639-V",731 nM
same,IC50,"Homo sapiens, 647-V",426 nM
same,IC50,"Homo sapiens, 769-P",> 29300 nM
same,IC50,"Homo sapiens, 5637",143 nM
same,IC50,"Homo sapiens, A 172, A172",590 nM
same,IC50,"Homo sapiens, A204, A204",> 29000 nM
same,IC50,"Homo sapiens, A498, A498",435 nM
same,IC50,"Homo sapiens, A549, A549",837 nM
same,IC50,"Homo sapiens, A-375, A-375",647 nM
same,IC50,"Homo sapiens, A-427, A427",276 nM
same,IC50,"Homo sapiens, AML-193",1400 nM
same,IC50,"Homo sapiens, AMO1, AMO-1",337 nM
same,IC50,"Homo sapiens, ARH-77, ARH-77",238 nM
same,IC50,"Homo sapiens, ASPC1, ASPC1",424 nM
same,IC50,"Homo sapiens, BC-3C",408 nM
same,IC50,"Homo sapiens, BFTC-905, BFTC-905",440 nM
same,IC50,"Homo sapiens, BJAB",3100 nM
same,IC50,"Homo sapiens, BT-20, BT-20",8160 nM
same,IC50,"Homo sapiens, BT-474, BT-474",5740 nM
same,IC50,"Homo sapiens, BT-549, BT549",17800 nM
same,IC50,"Homo sapiens, CA46, CA-46",580 nM
same,IC50,"Homo sapiens, CAKI-1, Caki-1",578 nM
same,IC50,"Homo sapiens, CAL-29",817 nM
same,IC50,"Homo sapiens, CAL-51, CAL-51",2300 nM
same,IC50,"Homo sapiens, CAL-85-1, CAL-85-1",1740 nM
same,IC50,"Homo sapiens, CAMA-1, CAMA-1",7330 nM
same,IC50,"Homo sapiens, CAPAN-1, CAPAN1",1110 nM
same,IC50,"Homo sapiens, CHP-212, CHP-212",16.3 nM
same,IC50,"Homo sapiens, COLO 201, Colo 201",661 nM
same,IC50,"Homo sapiens, COLO 205, Colo 205",694 nM
same,IC50,"Homo sapiens, COLO 320DM, COLO-320DM",2350 nM
same,IC50,"Homo sapiens, COLO-320-HSR, Colo 320 HSR",2220 nM
same,IC50,"Homo sapiens, COLO-741, COLO-741",2910 nM
same,IC50,"Homo sapiens, COR-L23, COR-L23",786 nM
same,IC50,"Homo sapiens, COR-L105, COR-L105",> 29300 nM
same,IC50,"Homo sapiens, Caco-2, CaCo-2",740 nM
same,IC50,"Homo sapiens, Calu-1, Calu1",> 29300 nM
same,IC50,"Homo sapiens, Calu-6, Calu6",1280 nM
same,IC50,"Homo sapiens, Capan-2, CAPAN2",1060 nM
same,IC50,"Homo sapiens, ChaGo-K-1, Cha-Go-K1",2820 nM
same,IC50,"Homo sapiens, DB",346 nM
same,IC50,"Homo sapiens, DBTRG-05MG, DBTRG05MG",> 29300 nM
same,IC50,"Homo sapiens, DLD-1, DLD-1",2430 nM
same,IC50,"Homo sapiens, DMS-114, DMS114",9170 nM
same,IC50,"Homo sapiens, DMS-273, DMS273",262 nM
same,IC50,"Homo sapiens, DOHH-2, DOHH-2",116 nM
same,IC50,"Homo sapiens, DU-145, DU145",3720 nM
same,IC50,"Homo sapiens, DU-4475, DU-4475",1010 nM
same,IC50,"Homo sapiens, EBC-1, EBC-1",239 nM
same,IC50,"Homo sapiens, EFM-19, EFM-19",162 nM
same,IC50,"Homo sapiens, F-36P",1880 nM
same,IC50,"Homo sapiens, G-361, G-361",4360 nM
same,IC50,"Homo sapiens, G-401, G-401",189 nM
same,IC50,"Homo sapiens, GDM-1, GDM-1",42.3 nM
same,IC50,"Homo sapiens, GF-D8",33200 nM
same,IC50,"Homo sapiens, HCC38, HCC38",127 nM
same,IC50,"Homo sapiens, HCC70, HCC70",522 nM
same,IC50,"Homo sapiens, HCC827, HCC827",21000 nM
same,IC50,"Homo sapiens, HCC1143, HCC1143",509 nM
same,IC50,"Homo sapiens, HCC1395, HCC1395",14700 nM
same,IC50,"Homo sapiens, HCC1569, HCC1569",11300 nM
same,IC50,"Homo sapiens, HCC1806, HCC1806",261 nM
same,IC50,"Homo sapiens, HCC1937, HCC1937",956 nM
same,IC50,"Homo sapiens, HCC2935, HCC2935",21600 nM
same,IC50,"Homo sapiens, HCC4006, HCC4006",170 nM
same,IC50,"Homo sapiens, HCT-15, HCT-15",1250 nM
same,IC50,"Homo sapiens, HCT-116, HCT-116",10000 nM
same,IC50,"Homo sapiens, HD-MY-Z",143 nM
same,IC50,"Homo sapiens, HEL 92.1.7, HEL 92.1.7",12400 nM
same,IC50,"Homo sapiens, HL-60, HL60",4270 nM
same,IC50,"Homo sapiens, HOS",> 29000 nM
same,IC50,"Homo sapiens, HPAC",901 nM
same,IC50,"Homo sapiens, HPAF-II, HPAFII",957 nM
same,IC50,"Homo sapiens, HT115, HT115",1740 nM
same,IC50,"Homo sapiens, HT-29, HT-29",1810 nM
same,IC50,"Homo sapiens, HT-144, HT-144",1050 nM
same,IC50,"Homo sapiens, HT-1376, HT-1376",13100 nM
same,IC50,"Homo sapiens, HT",272 nM
same,IC50,"Homo sapiens, Hs 445, Hs445",976 nM
same,IC50,"Homo sapiens, Hs766T",1970 nM
same,IC50,"Homo sapiens, Hs-578T, Hs578t",18200 nM
same,IC50,"Homo sapiens, HuNS1, Huns1",887 nM
same,IC50,"Homo sapiens, HuP-T3, HuP-T3",3390 nM
same,IC50,"Homo sapiens, HuP-T4, HuP-T4",190 nM
same,IC50,"Homo sapiens, HuT78, HuT78",103 nM
same,IC50,"Homo sapiens, IGR-1, IGR-1",8760 nM
same,IC50,"Homo sapiens, IGROV-1, IGROV-1",189 nM
same,IC50,"Homo sapiens, J82, J82",20900 nM
same,IC50,"Homo sapiens, JJN-3, JJN3",164 nM
same,IC50,"Homo sapiens, JM1, JM1",75.8 nM
same,IC50,"Homo sapiens, JMSU-1, JMSU-1",583 nM
same,IC50,"Homo sapiens, JVM-2, JVM-2",172 nM
same,IC50,"Homo sapiens, JY",95.1 nM
same,IC50,"Homo sapiens, JeKo-1, JeKo-1",6190 nM
same,IC50,"Homo sapiens, K562, K562",310 nM
same,IC50,"Homo sapiens, KMS-11, KMS-11",46.8 nM
same,IC50,"Homo sapiens, KMS-12-BM",190 nM
same,IC50,"Homo sapiens, KO52",513 nM
same,IC50,"Homo sapiens, KP-3",99.9 nM
same,IC50,"Homo sapiens, KP-4, KP-4",20800 nM
same,IC50,"Homo sapiens, KPL-1, KPL-1",4110 nM
same,IC50,"Homo sapiens, KS-1",85.5 nM
same,IC50,"Homo sapiens, KU-19-19, KU-19-19",1110 nM
same,IC50,"Homo sapiens, Kasumi 1, KASUMI-1",13200 nM
same,IC50,"Homo sapiens, L-363, L363",65.7 nM
same,IC50,"Homo sapiens, L-428, L-428",665 nM
same,IC50,"Homo sapiens, LC-1sq",7590 nM
same,IC50,"Homo sapiens, LK-2, LK2",89.9 nM
same,IC50,"Homo sapiens, LN-18, LN-18",9680 nM
same,IC50,"Homo sapiens, LN-229, LN-229",1150 nM
same,IC50,"Homo sapiens, LNCaP",18900 nM
same,IC50,"Homo sapiens, LP-1, LP1",975 nM
same,IC50,"Homo sapiens, LS-411N, Ls411N",442 nM
same,IC50,"Homo sapiens, LoVo",494 nM
same,IC50,"Homo sapiens, Lu-65, LU65",463 nM
same,IC50,"Homo sapiens, Lu-99, LU-99",5300 nM
same,IC50,"Homo sapiens, M059J",18900 nM
same,IC50,"Homo sapiens, M059K",7890 nM
same,IC50,"Homo sapiens, MC116, MC116",82 nM
same,IC50,"Homo sapiens, MC/CAR",2740 nM
same,IC50,"Homo sapiens, MCF7, MCF-7",215 nM
same,IC50,"Homo sapiens, MDA-MB-157, MDA-MB-157",3250 nM
same,IC50,"Homo sapiens, MDA-MB-231, MDA-MB-231",2930 nM
same,IC50,"Homo sapiens, MDA-MB-435S",2220 nM
same,IC50,"Homo sapiens, MDA-MB-436, MDA-MB-436",7130 nM
same,IC50,"Homo sapiens, MDA-MB-453, MDA-MB-453",343 nM
same,IC50,"Homo sapiens, MDA-MB-468, MDA-MB-468",585 nM
same,IC50,"Homo sapiens, ME-1, ME1",2450 nM
same,IC50,"Homo sapiens, MEL-HO",1550 nM
same,IC50,"Homo sapiens, MEL-JUSO",79.3 nM
same,IC50,"Homo sapiens, MHH-PREB-1, MHH-PREB-1",3300 nM
same,IC50,"Homo sapiens, MIA PaCa-2, Miapaca-2",263 nM
same,IC50,"Homo sapiens, MINO",536 nM
same,IC50,"Homo sapiens, ML-2, ML-2",115 nM
same,IC50,"Homo sapiens, MOLM16, MOLM-16",31000 nM
same,IC50,"Homo sapiens, MOLM-13, MOLM-13",86.2 nM
same,IC50,"Homo sapiens, MOLP-2, MOLP-2",22100 nM
same,IC50,"Homo sapiens, MONO-MAC-6, MonoMac6",196 nM
same,IC50,"Homo sapiens, MV4-11, MV-4-11",94.7 nM
same,IC50,"Homo sapiens, Maver1, MAVER-1",133 nM
same,IC50,"Homo sapiens, NALM-6, NALM-6",1060 nM
same,IC50,"Homo sapiens, NB-4, NB-4",80.9 nM
same,IC50,"Homo sapiens, NCI-H146, NCI-H146",411 nM
same,IC50,"Homo sapiens, NCI-H292, NCI-H292",1340 nM
same,IC50,"Homo sapiens, NCI-H322, NCI-H322",1700 nM
same,IC50,"Homo sapiens, NCI-H441, NCI-H441",22400 nM
same,IC50,"Homo sapiens, NCI-H520, NCI-H520",26.1 nM
same,IC50,"Homo sapiens, NCI-H522, NCI-H522",> 29300 nM
same,IC50,"Homo sapiens, NCI-H526, NCI-H526",138 nM
same,IC50,"Homo sapiens, NCI-H526-R",219 nM
same,IC50,"Homo sapiens, NCI-H647, NCI-H647",2530 nM
same,IC50,"Homo sapiens, NCI-H661, NCI-H661",30800 nM
